Patent US20170281642A1, “METHODS OF TREATING ACUTE MYELOID LEUKEMIA OR ACUTE LYMPHOID LEUKEMIA USING PHARMACEUTICAL COMPOSITIONS CONTAINING THIENOTRIAZOLODIAZEPINE COMPOUNDS” (ONCOETHIX GmbH, priority 2014, published 2017)
“Also recorded” adds a separate entry of the source.

Tests used:
[1] = tested on: c-MYC; test: c-MYC mRNA (quantitative RT-PCR) and protein (Western blotting) expression in acute leukemia cell lines; assay type: cell-based; details: 500 nM
[2] = tested on: BRD2/3/4; test: BRD2/3/4 expression in acute leukemia cell lines; assay type: cell-based; details: 500 nM, 48 h
[3] = tested on: BRD2; test: BRD2 protein expression in acute leukemia cell lines; assay type: cell-based; details: 500 nM; most cell lines (OCI-AML3, JURKAT, RS4-11, NB4, NOMO-1, HL60)
[4] = tested on: BRD3; test: BRD3 protein levels in acute leukemia cell lines; assay type: cell-based; details: 500 nM; all cell lines evaluated
[5] = tested on: BRD4; test: BRD4 protein expression in acute leukemia cell lines; assay type: cell-based; details: 500 nM; only OCI-AML3, NB4 and K562 cell lines
[6] = tested on: HEXIM1; test: HEXIM1 mRNA and protein expression in acute leukemia cell lines; assay type: cell-based
[7] = tested on: nine AML and four ALL cell lines; test: cell viability, MTT assay; assay type: cell-based
Description: Cellular effects of compound (1-1) in various acute leukemia subtypes were evaluated. Cell viability after compound (1-1) exposure was evaluated with the MTT assay in nine AML and four ALL cell lines. Significant growth inhibition, defined as submicromolar IC50, was found in six of nine AML cell lines and all four ALL cell lines tested. The K562, KG1a and HL60 AML cell lines were resistant to compound (1-1).

[8] = tested on: AML and ALL cell lines; test: cell cycle analysis; assay type: cell-based; details: 500 nM, 48 h
[9] = tested on: AML and ALL cell lines; test: apoptosis by Annexin V staining and PI uptake; assay type: cell-based; details: 72 h; for apoptotic cells: 500 nM
Description: (§1) At 500 nM compound (1-1), 30-90% of cells were apoptotic in five of nine AML cell lines (HEL, NB4, NOMO-1, OCI-AML3, KASUMI) and 50-90% in two of four ALL cell lines (JURKAT and RS4-11; FIG. 14C).

[10] = tested on: caspase-3 and cytochrome c; test: caspase-3 activation and cytochrome c release in cell lines; assay type: cell-based; details: 500 nM, 72 h
Description: as §1

[11] = tested on: BM mononuclear cells from ALL and AML patients; test: ex vivo apoptosis in BM mononuclear cells of ALL and AML patients; assay type: cell-based, human; details: 500 nM, 72 h
Description: (§2) Apoptosis, mRNA and protein expression were evaluated in BM mononuclear cells obtained from representative newly diagnosed or relapsed ALL and AML patients, see Table 7, treated in the context of an ongoing Phase Ib study with compound (1-1) and for whom sufficient material for analysis was available. Apoptosis induction by exposure to 500 nM compound (1-1) for 72 h was variable among the patient samples tested (FIG. 15A).

[12] = tested on: caspase-3 and cytochrome c; test: ex vivo caspase-3 activation and mitochondrial cytochrome c release in AML patient samples; assay type: cell-based, human; details: samples from three AML patients
Description: as §2

[13] = tested on: c-MYC; test: ex vivo c-MYC mRNA and protein expression in patient samples; assay type: cell-based, human; details: 500 nM
Description: as §2

[14] = tested on: BRD2; test: ex vivo BRD2 protein expression in primary AML samples; assay type: cell-based, human; details: 500 nM, 72 h; three primary AML samples

Cc1sc2c(c1C)C(c1ccc(Cl)cc1)=N[C@@H](CC(=O)Nc1ccc(O)cc1)c1nnc(C)n1-2 [compound (1-1), 2-[(6S)-4-(4-chlorophenyl)-2,3,9-trimethyl-6H-thienol[3,2-f]-[1,2,4]triazolo[4,3-a][1,4]diazepin-6-yl]-N-(4-hydroxyphenyl)acetamide dihydrate]
c-MYC protein levels ([1]; 24-72 h, all cell lines evaluated other than KG1 (OCI-AML3, K562, NB4, NOMO-1, HL60, JURKAT, RS4-11), dihydrate): decreased to a variable extent; also recorded: Decreases | c-MYC gene expression ([1]; 4 h and 24 h, same cell lines and KG1): decreased ubiquitously | c-MYC RNA levels ([1]; 24 h, all AML and ALL cell lines (K562, HL-60, NB4, NOMO-1, KG1, OCI-AML3, JURKAT, RS4-11)): ubiquitously downregulated | BRD2, BRD3 and BRD4 mRNA expression ([2]; HL60 and NOMO-1 cells): increased | BRD2, BRD3 and BRD4 mRNA expression ([2]; K562 and NB4 cell lines): dramatically decreased | BRD2, BRD3 and BRD4 mRNA expression ([2]; K562 cells): significantly decreased | BRD2, BRD3 and BRD4 mRNA expression ([2]; KG1, OCI-AML3, JURKAT, BV-173 and RS4-11): mild variations | BRD2, BRD3 and BRD4 mRNA expression ([2]; other cell lines (Example 7)): minimal to no increases | BRD2 protein expression [3]: decrease | BRD3 protein levels [4]: unmodified | BRD4 protein expression [5]: decreased | HEXIM1 mRNA expression ([6]; 500 nM, 4 and 24 h, K562, HL-60, NB4, NOMO-1, KG1, OCI-AML3, JURKAT, RS4-11): increased | HEXIM1 protein levels ([6]; 500 nM, 24-72 h, OCI-AML3, JURKAT and RS4-11 cell lines, dihydrate): Increases | HEXIM1 mRNA expression ([6]; 500 nM, 24 h, all cell lines except K562): increased | HEXIM1 mRNA expression, increase ([6]; 500 nM, 24 h, compound (1-1) resistant K562 cells): insignificant (less than twice) | HEXIM1 upregulation, rank among cell lines ([6]; OCI-AML3 and RS4-11 cell lines): highest | sensitivity to compound (1-1), MTT ([7]; K562, KG1a and HL60 AML cell lines): resistant | IC50 (growth inhibition, MTT) ([7]; six of nine AML cell lines and all four ALL cell lines): submicromolar | cells in the sub-G1 phase ([8]; KG1a, KG1, HEL, KASUMI and JURKAT): significant increase | transition from G1 to S-phase ([8]; all 13 cell lines): decreased | apoptotic cells ([9]; five of nine AML cell lines (HEL, NB4, NOMO-1, OCI-AML3, KASUMI)): 30-90% | apoptotic cells ([9]; two of four ALL cell lines (JURKAT and RS4-11)): 50-90% | apoptosis (Annexin V staining and PI uptake) ([9]; 25 to 500 nM): significant apoptosis | caspase-3 activation [10]: activated | cytochrome c release [10]: induced | apoptosis ([11]; 6 of 14 AML patients (4, 8, 9, 14, 16, 18)): no or a mild increase | increased apoptosis compared to control-treated cells ([11]; BM cells from 8 of 14 AML patients (3, 15, 17, 26, 27, 28, 31, 38)): 35-90% | apoptosis ([11]; two ALL patients (40 and 43)): no or a mild increase | activation of caspase-3 [12]: induced activation | mitochondrial cytochrome c release [12]: induced | c-MYC mRNA expression ([13]; 48 h, seven AML samples and two ALL samples): downregulated | c-MYC protein expression ([13]; 72 h, three primary AML samples): clearly decreased | BRD2 protein expression [14]: clearly decreased
